{
  "source": "patent US20240215583A1",
  "about": "“PLANT BIOLOGIC INCLUDING PYRROLOQUINOLINE QUINONE (PQQ)” (Dakota Bio LLC, priority 2022, published 2024)",
  "test": "physchem",
  "format": "physicochemical",
  "details": "25 °C, water",
  "from_the_text": "For instance, it has been observed that PQQ can be difficult to dissolve in liquid mixtures. […] In most cases, rather than dissolving, PQQ is initially suspended within a liquid solution, but the PQQ later settles out of this suspension. Once settled, the PQQ generally becomes ineffective and is inaccessible for a plant to uptake. For example, the PQQ quickly settles out of suspension onto the bottom of any storage container which in turn inhibits the spraying or otherwise applying the PQQ onto the plants and/or soil. This inability for PQQ to remain dissolved and/or suspended is exacerbated when out in commercial agricultural fields, because the solution is typically kept in large drums or other large containers that are difficult to agitate or otherwise move so as to maintain the suspension. Moreover, there is currently no commercially practical way to dissolve PQQ in a liquid mixture to mass produce a product useful in agricultural and/or horticultural situations (i.e., growing of ornamental plants).",
  "data": [
    {"smiles": "O=C(O)c1cc(C(=O)O)c2c(n1)C(=O)C(=O)c1cc(C(=O)O)[nH]c1-2", "note": "[PQQ, 4,5-Dioxo-4,5-dihydro-1H-pyrrolo[2,3-f]quinoline-2,7,9-tricarboxylic acid]", "values": [
      {"measurement": "solubility", "result": "~212", "unit": "µg/mL"}
    ]}
  ]
}
